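The compound was tested at five concentrations on cells cultured in 96-well plates, with a 48-hour exposure period. Abbreviation: GI50, concentration required for 50% inhibition of growth.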 Calls of active or inactive are those of the source. Rule as the data show it: active = GI50 up to about 1.1 µM and inactive = higher.
Columns and labels:
Test in all cases: growth of human tumour cells (NCI), 48 h
SF-295 = tested on: SF-295
PC-3 = tested on: PC-3
COLO 205 = tested on: COLO 205
A549 = tested on: A549
OVCAR-4 = tested on: OVCAR-4
MDA-MB-231 = tested on: MDA-MB-231
SNB-75 = tested on: SNB-75
MOLT-4 = tested on: MOLT-4
MDA-N = tested on: MDA-N
Malme-3M = tested on: Malme-3M
SK-OV-3 = tested on: SK-OV-3
T47D = tested on: T47D
OVCAR-8 = tested on: OVCAR-8
NCI-H522 = tested on: NCI-H522
EKVX = tested on: EKVX
SN12C = tested on: SN12C
HCT-116 = tested on: HCT-116
UACC-257 = tested on: UACC-257
SR = tested on: SR

Measured: GI50

c1ccc2c(c1)CCN(C1=NCCO1)C2
inactive: SF-295 > 10 µM | PC-3 > 10 µM | COLO 205 > 10 µM | A549 > 10 µM | OVCAR-4 > 10 µM | MDA-MB-231 > 10 µM | SNB-75 > 10 µM | MOLT-4 > 10 µM | MDA-N > 10 µM | Malme-3M > 10 µM | SK-OV-3 > 10 µM | T47D > 10 µM | OVCAR-8 > 10 µM | NCI-H522 > 10 µM | EKVX > 10 µM | SN12C > 10 µM | HCT-116 > 10 µM | UACC-257 > 10 µM

O=C(c1ccc(Cl)cc1)N(C(=O)N1CCC(c2ccccc2)CC1)c1ccccc1
inactive: SF-295 31 µM | PC-3 6.4 µM | COLO 205 33 µM | MDA-MB-231 26.1 µM | SNB-75 1.83 µM | MOLT-4 21.8 µM | MDA-N 39.3 µM | Malme-3M 10.4 µM | SK-OV-3 > 100 µM | T47D 11.1 µM | OVCAR-8 33.8 µM | EKVX 10.4 µM | SN12C 99.5 µM | HCT-116 17.5 µM | UACC-257 25.4 µM

COc1ccc(C2c3c(-c4ccccc4)nn(-c4ccccc4)c3Oc3ncn(N)c(=N)c32)cc1OC (centres undefined)
inactive: SF-295 2.05 µM | PC-3 1.95 µM | COLO 205 2.23 µM | A549 2.24 µM | OVCAR-4 2.45 µM | SR 3.53 µM | MDA-MB-231 1.71 µM | SNB-75 1.62 µM | MOLT-4 3.41 µM | Malme-3M 1.6 µM | SK-OV-3 6.53 µM | T47D 1.97 µM | OVCAR-8 2.1 µM | NCI-H522 2.21 µM | EKVX 1.91 µM | SN12C 2.51 µM | HCT-116 1.67 µM | UACC-257 1.95 µM

O=C1CCC(=O)N1n1c(Cc2ccc(Cl)cc2)n[nH]c1=O
inactive: SF-295 > 100 µM | PC-3 > 100 µM | COLO 205 > 100 µM | A549 > 100 µM | OVCAR-4 > 100 µM | MDA-MB-231 > 100 µM | MOLT-4 > 100 µM | MDA-N > 100 µM | Malme-3M > 100 µM | SK-OV-3 > 100 µM | T47D > 100 µM | OVCAR-8 > 100 µM | NCI-H522 > 100 µM | EKVX > 100 µM | SN12C > 100 µM | HCT-116 > 100 µM | UACC-257 > 100 µM

O=C(CC(C(=O)c1cccs1)c1ccsc1)c1ccco1 (centres undefined)
inactive: SF-295 39.7 µM | COLO 205 8.07 µM | A549 21.6 µM | SR 41.8 µM | SNB-75 28 µM | MOLT-4 > 100 µM | MDA-N 27.7 µM | SK-OV-3 41.3 µM | T47D 24.7 µM | OVCAR-8 32.3 µM | NCI-H522 20 µM | EKVX 24.8 µM | SN12C 35.5 µM | HCT-116 21.2 µM | UACC-257 37.9 µM

NC(=O)C1CCN(Cc2c(Cl)c(Cl)c(CN3CCC(C(N)=O)CC3)c(Cl)c2Cl)CC1
inactive: SF-295 23.7 µM | PC-3 > 100 µM | COLO 205 > 100 µM | A549 > 100 µM | OVCAR-4 > 100 µM | SR > 100 µM | MDA-MB-231 28.8 µM | SNB-75 24.3 µM | MOLT-4 > 100 µM | Malme-3M 90.8 µM | SK-OV-3 15.1 µM | T47D > 100 µM | OVCAR-8 > 100 µM | NCI-H522 > 100 µM | EKVX 38.6 µM | SN12C > 100 µM | HCT-116 > 100 µM | UACC-257 > 100 µM

Cn1c2c3ccccc3nc-2c(O)c2ccccc21 [HYDROXYCRYPTOLEPINE]
inactive: SF-295 > 100 µM | PC-3 > 100 µM | COLO 205 83.2 µM | A549 > 100 µM | OVCAR-4 54.1 µM | MDA-MB-231 85.9 µM | SNB-75 34.1 µM | MOLT-4 27.7 µM | MDA-N > 100 µM | Malme-3M > 100 µM | SK-OV-3 > 100 µM | T47D > 100 µM | OVCAR-8 > 100 µM | NCI-H522 > 100 µM | EKVX > 100 µM | SN12C 48.2 µM | HCT-116 49.4 µM | UACC-257 > 100 µM

COc1ccc(/C=N/n2c(Cc3ccccc3)n[nH]c2=O)cc1
inactive: SF-295 39.8 µM | PC-3 > 100 µM | COLO 205 > 100 µM | A549 > 100 µM | OVCAR-4 > 100 µM | MDA-MB-231 22.6 µM | SNB-75 > 100 µM | MOLT-4 > 100 µM | MDA-N > 100 µM | Malme-3M > 100 µM | SK-OV-3 > 100 µM | T47D > 100 µM | OVCAR-8 > 100 µM | EKVX > 100 µM | SN12C > 100 µM | HCT-116 > 100 µM | UACC-257 > 100 µM

Cc1ccc2c(/C=C/c3ccc(N(C)C)cc3)ccnc2c1C
inactive: SF-295 22.4 µM | PC-3 18.7 µM | COLO 205 18.4 µM | A549 49.8 µM | MDA-MB-231 16.6 µM | SNB-75 15.4 µM | MOLT-4 38.6 µM | MDA-N 3.99 µM | Malme-3M 12.6 µM | SK-OV-3 31.1 µM | T47D 21.1 µM | OVCAR-8 24.7 µM | NCI-H522 19.1 µM | EKVX 40.4 µM | SN12C 20.6 µM | HCT-116 25.2 µM | UACC-257 26.8 µM

CN(CCCNC(=O)c1nn(C)c2c1Cc1ccccc1-2)CCCNC(=O)c1nn(C)c2c1Cc1ccccc1-2
inactive: SF-295 18.2 µM | PC-3 16.2 µM | COLO 205 13.7 µM | A549 16.5 µM | OVCAR-4 16.3 µM | SR 2.99 µM | MDA-MB-231 19.3 µM | SNB-75 15.2 µM | MOLT-4 4.73 µM | Malme-3M 20.5 µM | SK-OV-3 16 µM | T47D 22.5 µM | OVCAR-8 19.6 µM | NCI-H522 21.8 µM | EKVX 19.2 µM | SN12C 16.5 µM | HCT-116 14.3 µM | UACC-257 12.1 µM

CN1CC[C@]23c4c5ccc(O)c4OC2c2[nH]ncc2C[C@H]3[C@H]1C5 (some centres undefined)
inactive: SF-295 > 100 µM | PC-3 > 100 µM | COLO 205 > 100 µM | A549 > 100 µM | OVCAR-4 > 100 µM | SR > 100 µM | MDA-MB-231 > 100 µM | SNB-75 94.6 µM | MOLT-4 > 100 µM | Malme-3M > 100 µM | SK-OV-3 > 100 µM | T47D > 100 µM | OVCAR-8 > 100 µM | NCI-H522 > 100 µM | EKVX > 100 µM | SN12C > 100 µM | HCT-116 > 100 µM | UACC-257 > 100 µM

Reference: ChEMBL document CHEMBL1201862, “PubChem BioAssay data set” (2004)
